According to the supplement of paper PMC11061612:

Legend:
[1] = compound: Cn1cnc2c(F)c(Nc3ccc(Br)cc3Cl)c(C(=O)NOCCO)cc21 [Selumetinib]; details: max 10 µM
How it was run: (§1)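 Cancer cell lines were seeded into 1536-well plates in 7.5 μl medium (DMEM/F12 or RPMI, 10% FBS), held 24 hours at 37°C and 5% CO2, and dosed for 72 hours with final DMSO typically 0.2%. Luminescence from CellTiter-Glo 2.0, scaled between blank-well and DMSO-well means, served as viability. The single-agent IC50 was obtained from dose-response fits with a non-linear mixed effects model, each fit being a two-parameter logistic curve.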

[2] = compound: C[C@@H](c1ccc2nccn2c1)n1nnc2ncc(-c3cnn(C)c3)nc21 [Savolitinib]; details: max 1 µM
How it was run: as §1

[3] = compound: C[C@@H](Oc1cc(-c2cnn(C3CCNCC3)c2)cnc1N)c1c(Cl)ccc(F)c1Cl [Crizotinib]; details: max 10 µM
How it was run: as §1

[4] = compound: Cc1nc(-c2cn3c(n2)-c2ccc(-c4cnn(C(C)(C)C(N)=O)c4)cc2OCC3)n(C(C)C)n1 [Taselisib]; details: max 10 µM
How it was run: as §1

[5] = compound: CC1=C(C(=CC=C1)Cl)NC(=O)C2=CN=C(S2)NC3=CC(=NC(=N3)C)N4CCN(CC4)CCO [Dasatinib]; details: max 2 µM
How it was run: as §1

[6] = compound: CC1=CN2[C@@H](C1)C=NC3=CC(=C(C=C3C2=O)OC)OCCCCCOC4=C(C=C5C(=C4)N=C[C@@H]6CC(=CN6C5=O)C)OC [SG3199]; details: max 0.001 µM
How it was run: as §1

[7] = compound: N#Cc1cnc(Nc2cc(NC[C@H]3CNCCO3)c(C(F)(F)F)cn2)cn1 [SRA737]; details: max 10 µM
How it was run: as §1

[8] = compound: O=C(c1cc(Cc2n[nH]c(=O)c3ccccc23)ccc1F)N1CCN(C(=O)C2CC2)CC1 [Olaparib]; details: max 10 µM
How it was run: as §1

[9] = compound: O=c1[nH]cc(F)c(=O)[nH]1 [5-Fluorouracil]; details: max 20 µM
How it was run: as §1

[10] = compound: COc1cccc(OCCCN)c1-c1cc(Nc2cnc(C#N)cn2)n[nH]1 [Prexasertib]; details: max 1 µM
How it was run: as §1

[11] = compound: C1CN(CCC1(C(=O)N[C@@H](CCO)C2=CC=C(C=C2)Cl)N)C3=NC=NC4=C3C=CN4 [AZD5363]; details: max 10 µM
How it was run: as §1

[12] = compound: CCN(CCO)CCCOc1ccc2c(Nc3cc(CC(=O)Nc4cccc(F)c4)[nH]n3)ncnc2c1 [AZD2811]; details: max 1 µM
How it was run: as §1

[13] = compound: COc1cc([C@@H]2c3cc4c(cc3[C@@H](O[C@@H]3O[C@@H]5CO[C@@H](C)O[C@H]5[C@H](O)[C@H]3O)[C@H]3COC(=O)[C@H]23)OCO4)cc(OC)c1O [Etoposide]; details: max 10 µM
How it was run: as §1

[14] = compound: CC(=O)c1c(C)c2cnc(Nc3ccc(N4CCNCC4)cn3)nc2n(C2CCCC2)c1=O [Palbociclib]; details: max 10 µM
How it was run: as §1

[15] = compound: CC(=O)Nc1cccc(-n2c(=O)n(C3CC3)c(=O)c3c(Nc4ccc(I)cc4F)n(C)c(=O)c(C)c32)c1 [Trametinib]; details: max 1 µM
How it was run: as §1

[16] = compound: COc1cccc2c1C(=O)c1c(O)c3c(c(O)c1C2=O)C[C@@](O)(C(=O)CO)C[C@@H]3O[C@H]1C[C@H](N)[C@H](O)[C@H](C)O1 [Doxorubicin]; details: max 1 µM
How it was run: as §1

[17] = compound: NC1(c2ccc(-c3nc4ccn5c(=O)[nH]nc5c4cc3-c3ccccc3)cc2)CCC1 [MK-2206]; details: max 10 µM
How it was run: as §1

[18] = compound: C[C@@H]1COCCN1C2=NC(=NC(=C2)C3(CC3)[S@](=N)(=O)C)C4=C5C=CNC5=NC=C4 [AZD6738]; details: max 10 µM
How it was run: as §1

[19] = compound: COc1cc2ncnc(Nc3ccc(F)c(Cl)c3)c2cc1OCCCN1CCOCC1 [Gefitinib]; details: max 10 µM
How it was run: as §1

[20] = compound: COc1cc(Nc2ncc3c(n2)-c2ccc(Cl)cc2C(c2c(F)cccc2OC)=NC3)ccc1C(=O)O [Alisertib]; details: max 10 µM
How it was run: as §1

[21] = compound: C[C@@H](Nc1cc(F)cc(F)c1)c1cc(C(=O)N(C)C)cc2c(=O)cc(N3CCOCC3)oc12 [AZD8186]; details: max 10 µM
How it was run: as §1

[22] = compound: CS(=O)(=O)CCNCc1ccc(-c2ccc3ncnc(Nc4ccc(OCc5cccc(F)c5)c(Cl)c4)c3c2)o1 [Lapatinib]; details: max 10 µM
How it was run: as §1

[23] = compound: COc1nnc2ccc(N3CCC(c4ccc(OCCN5CCN(C)C(=O)[C@H]5C)cc4)CC3)nn12 [AZD5153]; details: max 1 µM
How it was run: as §1

[24] = compound: C=CCn1c(=O)c2cnc(Nc3ccc(N4CCN(C)CC4)cc3)nc2n1-c1cccc(C(C)(C)O)n1 [AZD1775]; details: max 3 µM
How it was run: as §1

[25] = compound: C1CC(C1)(C(=O)[O-])C(=O)[O-].N.N.[Pt+2] [Carboplatin]; details: max 10 µM
How it was run: as §1

[26] = compound: CN(C)CCCOc1ccc(-c2ccc3ncc4c(c3c2)n(C2CCOCC2)c(=O)n4C)cn1 [AZD0156]; details: max 3 µM
How it was run: as §1

[27] = compound: Cc1cc2ncnn2cc1Nc1ncc2c(n1)n(C1CCOCC1)c(=O)n2C [AZD7648]; details: max 10 µM
How it was run: as §1

[28] = compound: Cc1c2c(nn1C)CSCc1cc(n(C)n1)CSc1cc(c3ccccc3c1)OCCCc1c(C(=O)O)n(C)c3c-2c(Cl)ccc13 [AZD5991]; details: max 1 µM
How it was run: as §1

[29] = compound: CN(CC[C@H](CSC1=CC=CC=C1)NC2=C(C=C(C=C2)S(=O)(=O)NC(=O)C3=CC=C(C=C3)N4CCC(CC4)[C@H](C5=CC=CC=C5C6=CC=C(C=C6)Cl)O)S(=O)(=O)C(F)(F)F)CCO [AZD4320]; details: max 1 µM
How it was run: as §1

[30] = compound: Nc1ccn([C@@H]2O[C@H](CO)[C@@H](O)C2(F)F)c(=O)n1 [Gemcitabine]; details: max 0.3 µM
How it was run: as §1

[31] = compound: O=C(Nc1ccc2[nH]nc(-c3ccncc3)c2c1)[C@@H]1CCN(CC(=O)N2CCN(c3ccc(-c4ncccn4)cc3)CC2)C1; details: max 5 µM
How it was run: as §1

[32] = compound: CC(=O)O[C@H]1C(=O)[C@@]2(C)[C@H]([C@H](OC(=O)c3ccccc3)[C@]3(O)C[C@H](OC(=O)[C@H](O)[C@@H](NC(=O)c4ccccc4)c4ccccc4)C(C)=C1C3(C)C)[C@]1(OC(C)=O)CO[C@@H]1C[C@@H]2O [Paclitaxel]; details: max 3 µM
How it was run: as §1

[33] = compound: CC1(C)CCC(CN2CCN(c3ccc(C(=O)NS(=O)(=O)c4ccc(NCC5CCOCC5)c([N+](=O)[O-])c4)c(Oc4cnc5[nH]ccc5c4)c3)CC2)=C(c2ccc(Cl)cc2)C1 [Venetoclax]; details: max 1 µM
How it was run: as §1

[34] = compound: CCc1c2c(nc3ccc(O)cc13)-c1cc3c(c(=O)n1C2)COC(=O)[C@]3(O)CC [SN-38]; details: max 0.3 µM
How it was run: as §1

[35] = compound: CC(C)n1c(=O)n(C)c2cnc3cc(F)c(-c4ccc(OCCCN5CCCCC5)nc4)cc3c21 [AZD1390]; details: max 0.3 µM
How it was run: as §1

Cell Line	IC50, cell viability 72 h [1]	IC50, cell viability 72 h [2]	IC50, cell viability 72 h [3]	IC50, cell viability 72 h [4]	IC50, cell viability 72 h [5]	IC50, cell viability 72 h [6]	IC50, cell viability 72 h [7]	IC50, cell viability 72 h [8]	IC50, cell viability 72 h [9]	IC50, cell viability 72 h [10]	IC50, cell viability 72 h [11]	IC50, cell viability 72 h [12]	IC50, cell viability 72 h [13]	IC50, cell viability 72 h [14]	IC50, cell viability 72 h [15]	IC50, cell viability 72 h [16]	IC50, cell viability 72 h [17]	IC50, cell viability 72 h [18]	IC50, cell viability 72 h [19]	IC50, cell viability 72 h [20]	IC50, cell viability 72 h [21]	IC50, cell viability 72 h [22]	IC50, cell viability 72 h [23]	IC50, cell viability 72 h [24]	IC50, cell viability 72 h [25]	IC50, cell viability 72 h [26]	IC50, cell viability 72 h [27]	IC50, cell viability 72 h [28]	IC50, cell viability 72 h [29]	IC50, cell viability 72 h [30]	IC50, cell viability 72 h [31]	IC50, cell viability 72 h [32]	IC50, cell viability 72 h [33]	IC50, cell viability 72 h [34]	IC50, cell viability 72 h [35]
MEG-01 (Chronic Myelogenous Leukemia)	3.41 µM	> 1 µM	0.828 µM	> 10 µM	< 0.002 µM	> 0.001 µM	1.18 µM	> 10 µM	> 20 µM	0.00809 µM	> 10 µM	0.776 µM	4.89 µM	> 10 µM	0.0389 µM	0.54 µM	> 10 µM	0.812 µM	> 10 µM	3.12 µM	> 10 µM	> 10 µM	0.0832 µM	0.292 µM	> 10 µM	> 3 µM	> 10 µM	> 1 µM	0.309 µM	0.0514 µM	1.22 µM	0.158 µM	> 1 µM	0.0744 µM	> 0.3 µM
MSTO-211H (Mesothelioma)	> 10 µM	> 1 µM	> 10 µM	> 10 µM	> 2 µM	> 0.001 µM	> 10 µM	> 10 µM	> 20 µM	0.0544 µM	> 10 µM	> 1 µM	9.06 µM	> 10 µM	0.874 µM	0.857 µM	> 10 µM	7.72 µM	> 10 µM	3.84 µM	> 10 µM	> 10 µM	> 1 µM	> 3 µM	> 10 µM	> 3 µM	> 10 µM	> 1 µM	> 1 µM	0.0219 µM	> 5 µM	2.95 µM	> 1 µM	0.047 µM	> 0.3 µM
NOMO-1 (Acute Myeloid Leukemia)	0.138 µM	> 1 µM	8.6 µM	1.51 µM	> 2 µM	> 0.001 µM	1.16 µM	> 10 µM	2.21 µM	0.00579 µM	> 10 µM	0.905 µM	2.12 µM	6.66 µM	0.00307 µM	0.542 µM	> 10 µM	1.66 µM	> 10 µM	4.16 µM	9 µM	> 10 µM	0.0504 µM	0.215 µM	> 10 µM	> 3 µM	> 10 µM	0.21 µM	> 1 µM	0.0101 µM	0.591 µM	0.00709 µM	0.627 µM	0.00723 µM	> 0.3 µM
